Biological target: hERG (KCNH2) (Homo sapiens, UniProt Q12809)
Test: hERG inhibition assays: For hERG inhibition assays, the cells used were HEK293 cells stably transfected with hERG (cell line obtained from Cytocentrics Inc. 3463 Magic Drive San Antonio, Tex. 78229). Composition of External Solution: NaCl, 137 mM; KCl, 4 mM; MgCl2, 1.0 mM; CaCl2, 1.8 mM; HEPES 10 mM; Dextrose 11 mM; Adjusted to a pH of 7.4 with NaOH. Composition of Internal Solution: KCl, 130.0 mM
Details: pH 7.4

hERG (KCNH2), sequence (Q12809 whole entry): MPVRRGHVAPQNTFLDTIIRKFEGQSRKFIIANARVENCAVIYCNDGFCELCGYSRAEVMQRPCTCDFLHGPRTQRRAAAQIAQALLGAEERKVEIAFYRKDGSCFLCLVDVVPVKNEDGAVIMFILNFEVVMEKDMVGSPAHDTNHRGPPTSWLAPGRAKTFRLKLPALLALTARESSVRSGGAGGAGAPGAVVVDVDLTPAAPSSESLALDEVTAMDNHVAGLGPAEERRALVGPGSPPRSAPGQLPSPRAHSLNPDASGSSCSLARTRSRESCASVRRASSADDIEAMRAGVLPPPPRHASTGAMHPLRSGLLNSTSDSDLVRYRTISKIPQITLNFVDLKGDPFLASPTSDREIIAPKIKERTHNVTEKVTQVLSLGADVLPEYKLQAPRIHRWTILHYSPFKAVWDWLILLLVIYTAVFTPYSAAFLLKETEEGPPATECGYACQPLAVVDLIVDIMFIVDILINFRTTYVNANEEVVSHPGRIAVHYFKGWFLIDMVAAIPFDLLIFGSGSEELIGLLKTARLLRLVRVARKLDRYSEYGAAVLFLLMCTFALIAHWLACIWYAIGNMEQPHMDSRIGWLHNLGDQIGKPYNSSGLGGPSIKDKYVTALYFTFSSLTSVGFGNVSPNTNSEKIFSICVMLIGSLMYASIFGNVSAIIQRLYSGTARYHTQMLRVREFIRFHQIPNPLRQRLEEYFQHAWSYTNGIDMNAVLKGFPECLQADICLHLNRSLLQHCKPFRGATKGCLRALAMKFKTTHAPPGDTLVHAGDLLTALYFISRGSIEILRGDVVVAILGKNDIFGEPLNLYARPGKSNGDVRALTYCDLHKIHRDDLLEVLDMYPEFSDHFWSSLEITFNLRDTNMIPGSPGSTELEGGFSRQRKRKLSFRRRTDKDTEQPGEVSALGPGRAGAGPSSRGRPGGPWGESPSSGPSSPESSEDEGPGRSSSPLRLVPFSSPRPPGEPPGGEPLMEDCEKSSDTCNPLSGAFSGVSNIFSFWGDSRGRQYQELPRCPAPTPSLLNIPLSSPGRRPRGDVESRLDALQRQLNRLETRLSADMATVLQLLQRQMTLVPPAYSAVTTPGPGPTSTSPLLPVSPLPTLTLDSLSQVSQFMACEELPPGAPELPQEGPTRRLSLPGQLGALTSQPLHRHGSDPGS

Molecule `Nc1ccc(-c2cccs2)cc1NC(=O)c1ncc(N2CCNCC2)s1` has an IC50 of 3.6 µM.
